These results are taken from PubChem BioAssay (NCI).

Holding throughout (experiment): DTP human tumour cell line panel, 48 h
Assay [1] relates to NCI-H226 lung.
In assay [2] the test system is COLO 205 colon.
Assay [3] relates to HT29 colon.
The test system of assay [4] is SF-268 CNS.
For assay [5], the system named is DU-145 prostate.
Assay [6] deals with UO-31 renal.
Assay [7] deals with A498 renal.
The subject of assay [8] is CAKI-1 renal.
Assay [9] concerns 786-0 renal.
Assay [10] has as its system IGROV1 ovarian.
The test system of assay [11] is BT-549 breast.
Assay [12] relates to EKVX NSCLC.
Assay [13] concerns HOP-92 NSCLC.
The subject of assay [14] is OVCAR-4 ovarian.

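The compound was tested at five concentrations on cells cultured in 96-well plates, with a 48-hour exposure period. TGI denotes the concentration required for complete inhibition of growth.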

Usually TGI stands for the concentration at which net growth stops. Turning to `CN(C)CCCNC(=O)N/N=C/c1ccc(O)cc1`, the TGI in assay [1], in [2], in assay [3], in assay [4], in [5] and in [6] was above 100 µM in each case. The concentration for total growth inhibition (TGI) in assay [7], in assay [8], in assay [9], in assay [10] and in assay [11] was above 100 µM each time.

In the case of `O=C(N/N=C(/COc1ccccc1)N=Cc1ccncc1)c1ccncc1`, the TGI in [12], in assay [13], in assay [2], in assay [3], in assay [4] and in [5] was above 100 µM each time. Besides, the total growth inhibition concentration (TGI) in [14], in [7], in assay [8], in assay [9], in assay [10] and in assay [11] was above 100 µM in each case.

Turning to `COC(CNC(=O)CNC(=O)c1ccc(C(F)(F)F)cc1)OC`, the TGI in [12], in assay [1], in [13], in assay [2], in assay [3] and in assay [4] was above 100 µM each time. Besides, the total growth inhibition concentration (TGI) in assay [5], in assay [6], in assay [8], in assay [9], in assay [10] and in assay [11] was above 100 µM throughout.

In the case of `Cc1ccc(C2(O)c3ccccc3C(=O)N(C)C2(O)c2ccc(C)cc2)cc1` (stereo unspecified), the concentration for total growth inhibition (TGI) in [12] was above 100 µM; in assay [13] it was 91.1 µM; in assay [2] it was above 100 µM; in assay [3], above 100 µM; in assay [4], 50.6 µM; in [5], above 100 µM. The concentration for total growth inhibition (TGI) is above 100 µM in assay [6]; 50.9 µM in assay [14]; above 100 µM in assay [7]; above 100 µM in assay [8]; above 100 µM in assay [9]; above 100 µM in assay [10]. For the same compound, the concentration for total growth inhibition (TGI) in assay [11] is above 100 µM.

Consider `CCOC(=O)Cc1c(C)c2ccc(OC(C)=O)c(OC(C)=O)c2oc1=O`, for which the TGI is above 100 µM in assay [12]; 94.3 µM in [1]; 71.3 µM in assay [13]; above 100 µM in assay [2]; 91.3 µM in assay [3]; 96.1 µM in [4]. Besides, the TGI is above 100 µM in [5]; 55.8 µM in assay [6]; 64 µM in assay [14]; above 100 µM in [7]; above 100 µM in assay [9]; 44.3 µM in assay [10].

In the case of `COc1c(C)c(C/C=C(\C)CC/C=C(\C)CC/C=C(\C)CCC=C(C)C)c(OC)c(OC)c1OC`, the TGI in assay [12], in assay [13], in assay [2], in [3], in assay [4] and in assay [5] was above 100 µM in each case. Besides, the TGI in assay [6], in assay [14], in [8], in assay [9], in assay [10] and in assay [11] was above 100 µM in each case.

With `Cc1ccc(Nc2c3c(c(C#N)c4nc5ccccc5n24)CCCC3)cc1`, the concentration for total growth inhibition (TGI) in [12] is above 100 µM; in assay [1] it was 62 µM; in [13], 76.2 µM; in [2], 50.6 µM; in [3] it was 37.2 µM; in assay [4], above 100 µM. Also, the TGI in assay [5] is above 100 µM; in [6] it was 65.6 µM; in assay [14], above 100 µM; in assay [8], above 100 µM; in [9], above 100 µM; in [10] it was above 100 µM. Also, in [11], the concentration for total growth inhibition (TGI) was above 100 µM.

Take `Cc1ccc(S(=O)(=O)N(CC(O)COc2ccccc2)c2c(F)c(F)cc(F)c2F)cc1` (stereo unspecified): the TGI in assay [12] came to 92.3 µM; in assay [1], 57.9 µM; in [13], 34.2 µM; in [2], 29.1 µM; in assay [3] it was 33.4 µM; in [4], 38.2 µM. In addition, the total growth inhibition concentration (TGI) in [5] was above 100 µM; in [6], 41.3 µM; in assay [14], 52 µM; in [7] it was 39 µM; in assay [8], 37.1 µM; in [9], 58 µM. This compound also yielded a TGI in assay [11] of 48.7 µM.

Turning to `O=C1CC(c2ccc(Cl)cc2)C2(C(=O)NC(=S)NC2=O)C(c2ccc(Cl)cc2)C1` (stereo unspecified), the TGI in assay [12] was 91.7 µM; in [1], 66.9 µM; in [13], 40.3 µM; in assay [2] it was 30.6 µM; in assay [3], 32.4 µM; in assay [4], 31.9 µM. For the same compound, the TGI was above 100 µM in [5]; 48.9 µM in assay [6]; 37.9 µM in [14]; 31.4 µM in [7]; 74.6 µM in assay [8]; above 100 µM in assay [9].

For the compound `CC(=O)O[C@@H]1[C@H](OC2CCCCC2(c2ccccc2)c2ccccc2)O[N+]([O-])=CC12CCCCC2` (stereo partly specified), the TGI in assay [12] is 33.7 µM; in assay [1], 27.8 µM; in assay [13], 59.2 µM; in assay [2], 33.7 µM; in assay [3], 36.2 µM; in [4] it was 34.6 µM. Also, the TGI in assay [5] turned out to be 32 µM; in assay [6] it was 31.3 µM; in [7], 29.9 µM; in assay [8], 27.5 µM; in assay [9], 26.2 µM; in [10], 41.4 µM.

`COC(=O)[C@H](CNC(=O)/C=C/c1ccc(OC(C)=O)c(OC(C)=O)c1)NC(=O)/C=C/c1ccc(OC(C)=O)c(OC(C)=O)c1`: the concentration for total growth inhibition (TGI) in [12], in [1], in assay [13], in [2], in assay [3] and in assay [5] was above 100 µM throughout. For the same compound, the total growth inhibition concentration (TGI) in [14], in assay [7], in [8], in [9], in assay [10] and in [11] was above 100 µM each time.

Take `O=C1c2ccccc2N=C(c2cc3c(cc2Cl)Sc2nccn2S3(=O)=O)OS(=O)(=O)N1c1ccccc1`: the TGI was above 100 µM in assay [12]; above 100 µM in assay [1]; above 100 µM in assay [13]; 42.6 µM in assay [2]; 61 µM in [3]; above 100 µM in assay [4]. Also, the concentration for total growth inhibition (TGI) in assay [5] was above 100 µM; in [6], 91.3 µM; in assay [14] it was above 100 µM; in assay [7], above 100 µM; in assay [8] it was above 100 µM; in assay [9] it was above 100 µM. The total growth inhibition concentration (TGI) in [11] stood at 61.1 µM.

As for `Cc1sc2c(c1C)C(=O)c1cccn1-2`, the concentration for total growth inhibition (TGI) in assay [12], in assay [1], in assay [2], in assay [3], in assay [4] and in assay [5] was above 100 µM throughout. Also, the TGI in assay [6], in [14], in [7], in assay [8], in [9] and in assay [10] was above 100 µM in each case. In addition, the total growth inhibition concentration (TGI) in assay [11] was above 100 µM.

`O=[N+]([O-])c1ccc(CSc2nn(Cc3ccc([N+](=O)[O-])cc3)cc3ncnc2-3)cc1`: the TGI in assay [12] is above 100 µM; in [1], above 100 µM; in [13], 30.4 µM; in assay [2], above 100 µM; in assay [3], above 100 µM; in assay [6], 61.2 µM. Moreover, the TGI in assay [14] is above 100 µM; in [7] it was 58.8 µM; in [8], above 100 µM; in assay [9], above 100 µM; in assay [10], 52.1 µM; in assay [11], 84.8 µM.

For `O=C(O)c1cc2ccccc2c(Cc2c(O)c(C(=O)O)cc3ccccc23)c1O`, the total growth inhibition concentration (TGI) in [12], in [1], in assay [13], in assay [3], in [4] and in assay [5] was above 100 µM throughout. For the same compound, the TGI in assay [6], in assay [14], in assay [7], in assay [8], in [9] and in assay [10] was above 100 µM in each case. This compound registered a TGI in [11] above 100 µM.

`CC(=N/NC(=S)N1CCCCCC1)/C(C)=N\NC(=S)N1CCCCCC1`: the TGI worked out at 10.6 µM in assay [12]; 9.23 µM in [1]; 2.77 µM in assay [13]; 38.5 µM in [2]; 7.08 µM in [3]; 11.2 µM in assay [4]. The TGI in assay [5] came out at 8.66 µM; in assay [6], 54.3 µM; in assay [7] it was 3.47 µM; in assay [8], 12.4 µM; in assay [9] it was 9.79 µM; in assay [10] it was 8.44 µM. This compound showed a total growth inhibition concentration (TGI) in assay [11] of 11 µM.

With `CCOC(=O)COc1cc(-c2ccccc2F)nc2cc3c(cc12)OCO3`, the TGI in assay [12] was above 100 µM; in [1] it was above 100 µM; in [13], 98.8 µM; in [2], above 100 µM; in [3] it was above 100 µM; in assay [4], above 100 µM. The TGI in assay [5], in assay [8], in assay [9], in assay [10] and in [11] was above 100 µM each time.

Consider `c1ccc(CN2CCC(=NN3CCCCC3)CC2)cc1`, for which the TGI is above 100 µM in [12]; above 100 µM in [1]; above 100 µM in [13]; 99.5 µM in assay [2]; above 100 µM in [3]; above 100 µM in [4]. Also, the total growth inhibition concentration (TGI) in assay [5], in [6], in assay [14], in [8], in assay [9] and in [10] was above 100 µM each time. In addition, in assay [11], the TGI was above 100 µM.

As to `CN1C(=O)c2ccccc2C(O)(c2ccccc2)C1(O)c1ccccc1` (stereo unspecified), the concentration for total growth inhibition (TGI) is above 100 µM in [12]; above 100 µM in [1]; 97.7 µM in assay [13]; above 100 µM in assay [2]; above 100 µM in [3]; above 100 µM in assay [4]. Also, the concentration for total growth inhibition (TGI) in assay [6], in assay [14], in assay [7], in [8], in assay [9] and in assay [10] was above 100 µM in each case. The same compound came in with a concentration for total growth inhibition (TGI) in assay [11] above 100 µM.

With `C/C=C1\CC(C(=O)OCC)CCCCCCC1=O` (stereo unspecified), the TGI in assay [12], in assay [1], in assay [2], in assay [3], in assay [4] and in assay [5] was above 100 µM throughout. The TGI in assay [6], in assay [14], in assay [7], in assay [8], in assay [9] and in [10] was above 100 µM throughout. Moreover, the total growth inhibition concentration (TGI) in assay [11] was above 100 µM.

With `COc1cc(C2CC(C)(N3CCOCC3)Oc3cc4c(cc32)OCO4)cc(OC)c1OC` (stereo unspecified), the total growth inhibition concentration (TGI) is above 100 µM in assay [12]; above 88.4 µM in assay [1]; above 100 µM in assay [13]; above 100 µM in assay [4]; above 33.1 µM in assay [5]; above 100 µM in assay [6]. Moreover, the TGI in [14] is 8.65 µM; in assay [8], 72.1 µM; in assay [9], 11.5 µM; in [10], above 35.9 µM; in assay [11] it was above 100 µM.

With `Cc1ccc(S(=O)(=O)NC(=O)Nc2c(S(N)(=O)=O)cc(S(N)(=O)=O)c(Cl)c2Cl)cc1`, the TGI in assay [12], in [1], in assay [13], in assay [3], in [4] and in assay [6] was above 100 µM throughout. The concentration for total growth inhibition (TGI) in [14], in [7], in assay [8], in assay [9], in [10] and in [11] was above 100 µM in each case.
